# Assay results published in PMC11783400, “Assessment of Potential Drug–Drug Interactions for Novel Oral Melanocortin‐1 Receptor Agonist Dersimelagon” (Pharmacology Research & Perspectives, 2025).
# What was measured:
# OAT1 = target: T1, OAT1 (Homo sapiens, UniProt Q4U2R8); assay: uptake inhibition in HEK293 cells expressing the transporter; type: cell-based
# T1 construct: gene SLC22A6; expressed in HEK293 cells
# T1 sequence (Q4U2R8 1-563): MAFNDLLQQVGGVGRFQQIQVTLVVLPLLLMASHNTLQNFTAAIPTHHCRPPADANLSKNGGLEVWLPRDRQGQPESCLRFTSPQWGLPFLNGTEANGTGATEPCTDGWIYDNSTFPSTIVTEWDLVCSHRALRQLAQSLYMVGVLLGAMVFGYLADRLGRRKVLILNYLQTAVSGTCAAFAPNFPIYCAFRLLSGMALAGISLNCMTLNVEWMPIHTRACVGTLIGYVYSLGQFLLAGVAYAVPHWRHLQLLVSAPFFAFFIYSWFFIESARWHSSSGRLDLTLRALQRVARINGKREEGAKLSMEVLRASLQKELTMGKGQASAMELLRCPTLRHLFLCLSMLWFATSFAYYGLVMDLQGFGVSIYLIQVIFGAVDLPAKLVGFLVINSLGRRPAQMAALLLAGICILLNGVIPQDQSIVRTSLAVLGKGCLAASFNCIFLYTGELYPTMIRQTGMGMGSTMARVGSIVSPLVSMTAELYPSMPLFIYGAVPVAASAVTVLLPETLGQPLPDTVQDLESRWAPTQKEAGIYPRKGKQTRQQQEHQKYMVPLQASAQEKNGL
# Description: uptake inhibition in HEK293 cells expressing the transporter on OAT1
# CYP3A4 (Table 1); CYP3A [1] = target: T2, CYP3A4 (Table 1); CYP3A (Homo sapiens, UniProt P08684); assay: CYP activity inhibition in human liver microsomes; type: biochemical; conditions: read-out: IC50 (μM) / Direct inhibition
# T2 construct: native enzyme in human liver microsomes
# Description: CYP activity inhibition in human liver microsomes on CYP3A4 (Table 1); CYP3A (text)
# CYP2D6 = target: T3, CYP2D6 (Homo sapiens, UniProt P10635); assay: CYP activity inhibition in human liver microsomes; type: biochemical; conditions: read-out: IC50 (μM) / Direct inhibition
# T3 construct: native enzyme in human liver microsomes
# Description: CYP activity inhibition in human liver microsomes on CYP2D6
# CYP2C9 = target: T4, CYP2C9 (Homo sapiens, UniProt P11712); assay: CYP activity inhibition in human liver microsomes; type: biochemical
# T4 construct: native enzyme in human liver microsomes
# Description: CYP activity inhibition in human liver microsomes on CYP2C9
# CYP3A4 (Table 1); CYP3A [2] = target: T2, CYP3A4 (Table 1); CYP3A; assay: time-dependent inactivation in human liver microsomes; type: biochemical; conditions: read-out: Parameters / K I
# Description: time-dependent inactivation in human liver microsomes on CYP3A4 (Table 1); CYP3A (text)
# OATP1B3 = target: T5, OATP1B3 (Homo sapiens, UniProt Q9NPD5); assay: uptake inhibition in HEK293 cells expressing the transporter; type: cell-based
# T5 construct: gene SLCO1B3; expressed in HEK293 cells
# T5 sequence (Q9NPD5 1-702): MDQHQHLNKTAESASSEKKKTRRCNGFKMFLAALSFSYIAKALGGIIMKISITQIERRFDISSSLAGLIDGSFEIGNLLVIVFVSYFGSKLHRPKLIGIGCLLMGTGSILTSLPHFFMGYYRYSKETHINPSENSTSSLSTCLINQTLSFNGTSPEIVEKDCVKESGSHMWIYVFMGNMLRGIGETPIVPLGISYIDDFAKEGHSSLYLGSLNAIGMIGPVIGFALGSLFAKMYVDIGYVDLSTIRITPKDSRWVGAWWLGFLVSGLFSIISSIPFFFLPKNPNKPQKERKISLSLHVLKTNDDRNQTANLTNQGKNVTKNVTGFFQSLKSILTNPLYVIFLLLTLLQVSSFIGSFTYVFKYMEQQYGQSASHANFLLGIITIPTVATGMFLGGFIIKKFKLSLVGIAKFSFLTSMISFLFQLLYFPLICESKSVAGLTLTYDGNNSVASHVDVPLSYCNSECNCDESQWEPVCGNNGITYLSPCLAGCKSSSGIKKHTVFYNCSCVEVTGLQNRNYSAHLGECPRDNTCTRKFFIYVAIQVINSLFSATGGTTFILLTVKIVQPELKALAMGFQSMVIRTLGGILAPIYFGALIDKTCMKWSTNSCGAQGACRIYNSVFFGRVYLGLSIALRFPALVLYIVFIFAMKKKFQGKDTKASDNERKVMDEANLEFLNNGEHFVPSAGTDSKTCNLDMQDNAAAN
# Description: uptake inhibition in HEK293 cells expressing the transporter on OATP1B3
# UGT1A1 = target: T6, UGT1A1 (Homo sapiens, UniProt P22309); assay: glucuronidation inhibition in human liver microsomes; type: biochemical; conditions: substrate beta-estradiol, competitive
# T6 construct: native enzyme in human liver microsomes
# T6 sequence (P22309 26-533): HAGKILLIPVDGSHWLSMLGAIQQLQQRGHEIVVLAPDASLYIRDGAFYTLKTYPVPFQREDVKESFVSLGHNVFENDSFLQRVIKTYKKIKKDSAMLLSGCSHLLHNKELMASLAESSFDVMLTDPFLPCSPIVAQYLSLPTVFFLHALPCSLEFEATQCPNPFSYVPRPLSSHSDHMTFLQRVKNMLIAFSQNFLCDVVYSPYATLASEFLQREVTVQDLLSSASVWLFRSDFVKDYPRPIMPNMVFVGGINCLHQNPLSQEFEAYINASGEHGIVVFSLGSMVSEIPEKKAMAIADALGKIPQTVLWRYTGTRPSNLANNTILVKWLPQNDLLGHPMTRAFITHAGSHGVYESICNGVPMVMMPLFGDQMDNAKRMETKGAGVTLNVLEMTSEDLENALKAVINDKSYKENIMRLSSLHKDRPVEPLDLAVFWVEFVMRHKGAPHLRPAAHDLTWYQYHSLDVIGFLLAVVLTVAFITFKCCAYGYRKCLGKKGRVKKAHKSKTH
# Description: glucuronidation inhibition in human liver microsomes on UGT1A1
# CYP2C19 = target: T7, CYP2C19 (Homo sapiens, UniProt P33261); assay: CYP activity inhibition in human liver microsomes; type: biochemical; conditions: read-out: IC50 (μM) / Direct inhibition
# T7 construct: native enzyme in human liver microsomes
# Description: CYP activity inhibition in human liver microsomes on CYP2C19
# T2 sequence (P08684 2-503): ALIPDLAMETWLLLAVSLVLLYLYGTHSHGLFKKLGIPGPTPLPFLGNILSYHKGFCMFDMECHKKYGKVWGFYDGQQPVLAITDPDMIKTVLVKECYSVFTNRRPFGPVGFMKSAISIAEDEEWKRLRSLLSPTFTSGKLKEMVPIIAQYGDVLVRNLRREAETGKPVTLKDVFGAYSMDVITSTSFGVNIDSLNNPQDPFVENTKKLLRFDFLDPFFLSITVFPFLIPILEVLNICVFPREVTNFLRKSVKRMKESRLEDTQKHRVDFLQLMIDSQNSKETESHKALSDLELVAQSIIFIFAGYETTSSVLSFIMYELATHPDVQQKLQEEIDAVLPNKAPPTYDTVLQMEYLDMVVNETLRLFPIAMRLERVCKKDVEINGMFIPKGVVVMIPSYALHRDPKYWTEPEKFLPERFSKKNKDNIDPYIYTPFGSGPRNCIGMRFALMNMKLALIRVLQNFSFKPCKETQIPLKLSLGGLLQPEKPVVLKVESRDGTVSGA
# T4 sequence (P11712 whole entry): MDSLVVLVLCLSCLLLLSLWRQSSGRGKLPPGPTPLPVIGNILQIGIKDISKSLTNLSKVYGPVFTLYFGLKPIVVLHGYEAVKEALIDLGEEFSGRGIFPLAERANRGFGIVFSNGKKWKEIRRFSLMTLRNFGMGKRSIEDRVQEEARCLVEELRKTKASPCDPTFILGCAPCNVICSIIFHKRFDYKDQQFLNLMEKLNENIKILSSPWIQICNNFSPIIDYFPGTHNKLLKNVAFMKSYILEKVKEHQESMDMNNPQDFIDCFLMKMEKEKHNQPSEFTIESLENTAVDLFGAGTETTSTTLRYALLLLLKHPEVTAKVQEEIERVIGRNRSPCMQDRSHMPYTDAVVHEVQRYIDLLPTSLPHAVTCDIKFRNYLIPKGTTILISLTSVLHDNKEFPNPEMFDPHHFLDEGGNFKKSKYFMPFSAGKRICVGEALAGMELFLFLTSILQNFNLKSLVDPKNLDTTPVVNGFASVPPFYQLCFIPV
# T3 sequence (P10635 whole entry): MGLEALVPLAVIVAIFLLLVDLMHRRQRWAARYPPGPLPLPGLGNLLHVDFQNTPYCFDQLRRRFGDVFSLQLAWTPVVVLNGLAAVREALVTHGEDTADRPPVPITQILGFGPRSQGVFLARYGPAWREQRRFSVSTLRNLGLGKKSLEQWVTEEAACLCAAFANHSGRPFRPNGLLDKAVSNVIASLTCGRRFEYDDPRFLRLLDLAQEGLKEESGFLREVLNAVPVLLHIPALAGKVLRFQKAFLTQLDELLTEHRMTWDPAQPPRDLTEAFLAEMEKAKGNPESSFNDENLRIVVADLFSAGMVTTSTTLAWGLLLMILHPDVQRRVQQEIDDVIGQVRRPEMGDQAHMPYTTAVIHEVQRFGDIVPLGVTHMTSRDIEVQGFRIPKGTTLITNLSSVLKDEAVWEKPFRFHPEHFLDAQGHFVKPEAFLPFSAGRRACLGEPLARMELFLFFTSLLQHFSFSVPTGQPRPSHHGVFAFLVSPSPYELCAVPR
# T7 sequence (P33261 whole entry): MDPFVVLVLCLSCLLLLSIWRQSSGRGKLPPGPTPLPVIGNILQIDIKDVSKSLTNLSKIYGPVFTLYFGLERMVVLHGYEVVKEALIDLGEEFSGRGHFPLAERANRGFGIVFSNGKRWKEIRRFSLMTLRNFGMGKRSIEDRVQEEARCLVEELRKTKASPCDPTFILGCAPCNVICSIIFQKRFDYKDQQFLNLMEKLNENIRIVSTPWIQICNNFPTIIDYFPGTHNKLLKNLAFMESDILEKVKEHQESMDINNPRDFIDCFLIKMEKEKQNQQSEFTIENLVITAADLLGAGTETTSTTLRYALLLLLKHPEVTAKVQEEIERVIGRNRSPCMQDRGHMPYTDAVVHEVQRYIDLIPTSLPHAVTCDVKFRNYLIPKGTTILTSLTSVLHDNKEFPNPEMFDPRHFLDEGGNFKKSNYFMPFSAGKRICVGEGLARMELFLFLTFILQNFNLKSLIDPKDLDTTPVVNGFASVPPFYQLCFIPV
compound,measurement,setting,value
COC[C@H]1CN(C(=O)[C@]2(F)CN(C3CCCC3)C[C@H]2c2ccc(OC)cc2)C[C@@H]1c1ccc(C(F)(F)F)cc1N1CCC(C(=O)O)CC1 [dersimelagon],IC50,OAT1,71.2 µM
same,IC50,CYP3A4 (Table 1); CYP3A [1],74.6 µM
same,IC50,CYP2D6,> 100 µM
same,IC50,CYP2C9; read-out: IC50 (μM) / Direct inhibition,9.16 µM
same,Ki,CYP2C9; read-out: Parameters / K i,5.13 µM
same,KI (inactivation),CYP3A4 (Table 1); CYP3A [2],64.1 µM
same,IC50,OATP1B3,0.0471 µM
same,Ki,UGT1A1; read-out: Parameters / K i,1.19 µM
same,IC50,UGT1A1; direct inhibition,1.45 µM
same,IC50,CYP2C19,23.4 µM
